Assay results published in publication PMC9220351, “Evaluation of a Conformationally Constrained Indole Carboxamide as a Potential Efflux Pump Inhibitor in Pseudomonas aeruginosa” (Antibiotics, 2022).

Test system: 34 MDR P. aeruginosa clinical isolates (CDC & FDA AR Isolate Bank)
Assay: microbe, parasite or virus in culture
Type: cell-based, Pseudomonas aeruginosa
Settings: for Levofloxacin MIC fold difference: + labelled EPI […] (TXA09155 head: 50 µg/mL); for Levofloxacin MIC: alone or + labelled EPI […] (TXA09155 head: 50 µg/mL)
From the text: P. aeruginosa ATCC 27853 was obtained from the American Type Culture Collection (ATCC; Manassas, VA, USA). P. aeruginosa multidrug-resistant isolates were obtained from the CDC and FDA Antibiotic Resistance Isolate Bank (Atlanta, GA, USA). P. aeruginosa DA7232 (gyrA-T83I, parC-S80L) was a kind gift from Prof. Dan I. Andersson, Uppsala University, Uppsala, Sweden, and has been characterized elsewhere. P. aeruginosa strains K767 (WT), K1455 (mexAB-oprM overexpressed), K2415 (mexXY-oprM overexpressed), and K3698 (oprM∆) were obtained from Prof. Keith Poole, Queen’s University, Kingston, Ontario, Canada and have been characterized elsewhere. Bacterial cells were grown in cation-adjusted Mueller Hinton (CAMH) media, brain heart infusion broth (BHI), or tryptic soy agar (TSA) plates were all obtained from Becton, Dickinson, and Company (BD; Franklin Lakes, NJ, USA). […] Azithromycin was purchased from Tokyo Chemical Industry (Portland, OR, USA). […] Ethidium bromide (EtBr) and glucose were purchased from VWR (Radnor, PA, USA). MC-04,124 and TXA01182 were synthesized at TAXIS Pharmaceuticals. Carbonyl cyanide 3-chlorophenylhydrazone (CCCP) was purchased from Enzo Life Sciences (Farmingdale, NY, USA). DiOC2 (3) and propidium iodide were obtained from Thermo Fisher Scientific (Waltham, MA, USA).
MIC assays were performed as described previously.

NCCC[C@H](N)CNC(=O)c1cc2ccc(-c3ccc(F)cc3)cc2[nH]1 [TXA01182]
Levofloxacin MIC fold difference (strain AR-0229): 8
Levofloxacin MIC (strain AR-0229): 8 µg/mL
Levofloxacin MIC fold difference (strain AR-0230): 4
Levofloxacin MIC (strain AR-0230): 16 µg/mL
Levofloxacin MIC fold difference (strain AR-0231): 2
Levofloxacin MIC (strain AR-0231): 32 µg/mL
Levofloxacin MIC fold difference (strain AR-0232): 8
Levofloxacin MIC (strain AR-0232): 1 µg/mL
Levofloxacin MIC fold difference (strain AR-0233): 8
Levofloxacin MIC (strain AR-0233): 0.5 µg/mL
Levofloxacin MIC fold difference (strain AR-0234): 8
Levofloxacin MIC (strain AR-0234): 1 µg/mL
Levofloxacin MIC fold difference (strain AR-0236): 4
Levofloxacin MIC (strain AR-0236): 8 µg/mL
Levofloxacin MIC fold difference (strain AR-0239): 8
Levofloxacin MIC (strain AR-0239): 8 µg/mL
Levofloxacin MIC fold difference (strain AR-0240): 8
Levofloxacin MIC (strain AR-0240): 16 µg/mL
Levofloxacin MIC fold difference (strain AR-0241): 4
Levofloxacin MIC (strain AR-0241): 16 µg/mL
Levofloxacin MIC fold difference (strain AR-0242): 8
Levofloxacin MIC (strain AR-0242): 2 µg/mL
Levofloxacin MIC fold difference (strain AR-0244): 16
Levofloxacin MIC (strain AR-0244): 8 µg/mL
Levofloxacin MIC fold difference (strain AR-0245): 4
Levofloxacin MIC (strain AR-0245): 32 µg/mL
Levofloxacin MIC fold difference (strain AR-0246): 4
Levofloxacin MIC (strain AR-0246): 16 µg/mL
Levofloxacin MIC fold difference (strain AR-0247): 64
Levofloxacin MIC (strain AR-0247): 0.031 µg/mL
Levofloxacin MIC fold difference (strain AR-0248): 8
Levofloxacin MIC (strain AR-0248): 2 µg/mL
Levofloxacin MIC fold difference (strain AR-0249): 8
Levofloxacin MIC (strain AR-0249): 8 µg/mL
Levofloxacin MIC fold difference (strain AR-0250): 4
Levofloxacin MIC (strain AR-0250): 16 µg/mL
Levofloxacin MIC fold difference (strain AR-0252): 16
Levofloxacin MIC (strain AR-0252): 2 µg/mL
Levofloxacin MIC fold difference (strain AR-0253): 16
Levofloxacin MIC (strain AR-0253): 0.125 µg/mL
Levofloxacin MIC fold difference (strain AR-0256): 8
Levofloxacin MIC (strain AR-0256): 0.062 µg/mL
Levofloxacin MIC fold difference (strain AR-0258): 4
Levofloxacin MIC (strain AR-0258): 0.125 µg/mL
Levofloxacin MIC fold difference (strain AR-0259): 1
Levofloxacin MIC (strain AR-0259): 0.125 µg/mL
Levofloxacin MIC fold difference (strain AR-0260): 4
Levofloxacin MIC (strain AR-0260): 16 µg/mL
Levofloxacin MIC fold difference (strain AR-0261): 16
Levofloxacin MIC (strain AR-0261): 0.5 µg/mL
Levofloxacin MIC fold difference (strain AR-0262): 16
Levofloxacin MIC (strain AR-0262): 0.25 µg/mL
Levofloxacin MIC fold difference (strain AR-0264): 8
Levofloxacin MIC (strain AR-0264): 4 µg/mL
Levofloxacin MIC fold difference (strain AR-0265): 8
Levofloxacin MIC (strain AR-0265): 8 µg/mL
Levofloxacin MIC fold difference (strain AR-0266): 4
Levofloxacin MIC (strain AR-0266): 8 µg/mL
Levofloxacin MIC fold difference (strain AR-0267): 16
Levofloxacin MIC (strain AR-0267): 2 µg/mL
Levofloxacin MIC fold difference (strain AR-0269): 8
Levofloxacin MIC (strain AR-0269): 4 µg/mL
Levofloxacin MIC fold difference (strain AR-0270): 16
Levofloxacin MIC (strain AR-0270): 2 µg/mL
Levofloxacin MIC fold difference (strain AR-0271): 4
Levofloxacin MIC (strain AR-0271): 8 µg/mL
Levofloxacin MIC fold difference (strain AR-0272): 4
Levofloxacin MIC (strain AR-0272): 4 µg/mL
